From patent publication US12516019B2, “Amphoteric compounds” (Eastman Chemical Company, priority 2015, dated 2026)

What was measured:
Assay type in all cases: physicochemical
[1] = Water solubility: heated to a clear solution, cooled to ambient temperature; details: ambient temperature after heating to a clear solution
Protocol: To a vial was added 5.00 g of 3-((lauryloxycarbonylpropyl)-dimethylammonio)propanesulfonate and 10.00 g of water. The mixture was heated to 100° C. for an hour to afford a clear solution. The mixture was then allowed to cool to ambient temperature, at which point it was still homogeneous with no precipitate or gel.
To a vial was added 5.00 g of 3-((lauryloxycarbonylmethyl)-dimethylammonio)propanesulfonate and 45.00 g of water. The mixture was heated to 100° C. for an hour to afford a clear solution. The mixture was then allowed to cool to ambient temperature resulting in a white solid. The solid was recovered by filtration and dried in a vacuum oven at 55° C. in vacuo with a nitrogen sweep overnight to afford 4.58 g of 3-((lauryloxycarbonylmethyl)-dimethylammonio)propanesulfonate.
To a vial was added 10.00 g of 3-((4-laurylamino-4-oxobutyl)-dimethylammonio)propanesulfonate and 20.00 g of water. The mixture was heated to 100° C. for an hour to afford a clear solution. The mixture was then allowed to cool to ambient temperature, at which point it was still homogeneous with no precipitate or gel.
The solubility of 3-((2-laurylamino-2-oxoethyl)dimethylammonio)-propanesulfonate was determined by mixing 5.00 g of material with 45.00 g of water and heating to 85° C. for 1 h to afford a clear 10 wt % solution. The material was allowed to cool to ambient temperature to afford a precipitate. The precipitate was filtered, and the resulting solid was dried in vacuo at 50° C. with a nitrogen sweep for 3 days to afford 4.54 g of recovered 3-((2-laurylamino-2-oxoethyl)dimethylammonio)propanesulfonate.

[2] = Foam height test, Standard Test Method for Foaming Properties of Surface-Active Agents (ASTM 1173-07); details: 49° C.; for Foam height at time t = 0: t = 0 min; for Foam height at time t = 1: t = 1 min; for Foam height at time t = 2: t = 2 min; for Foam height at time t = 3: t = 3 min; for Foam height at time t = 4: t = 4 min; for Foam height at time t = 5: t = 5 min
From the text: The Standard Test Method for Foaming Properties of Surface-Active Agents (ASTM 1173-07) for 0.1 wt % and 1.0 wt % was used to determine the foaming properties of the amphoteric compounds of the formula 1 described herein. This method generates foam under low-agitation conditions and is generally used for moderate- and high-foam surfactants. This test gathers data on initial foam height and foam decay. Foam decay provides information on foam stability.
The apparatus for carrying out this test includes a jacketed column and a pipet. The jacketed column serves as a receiver, while the pipet delivers the surface-active solution.
Solutions of each surface-active agent to be measured were prepared in borosilicate glass jars a day ahead of time, using ambient temperature ingredients, and were slowly rolled overnight to homogenize. The solutions were then removed from the rollers and equilibrated in a constant temperature bath (49° C.+/−1° C.) for at least 1 hour before measurement. The solution of the amphoteric compound to be tested was added to the receiver (50 mL) and to the pipet (200 mL). The pipet was positioned above the receiver and opened. As the solution fell and made contact with the solution in the receiver, foam was generated. When the pipet was empty, the time was noted and an initial foam height was recorded. The foam height was recorded each minute for five minutes. Exact size specifications for the glassware can be found in ASTM 1173-07. The foam height results for each amphoteric compound 1 and representative standards are listed below in Tables 1 (0.1% concentration) and 2 (1% concentration).

[3] = Critical micelle concentration from surface tension (Wilhelmy plate, K100C Tensiometer); details: deionized water, ambient temperature
Protocol: The critical micelle concentration (CMC) is an important characteristic of a surfactant, and the CMC values were determined for the amphoteric compounds of formula 1. The CMC is defined as the concentration at which micelle formation first begins, and for surface tension determination of CMC, is typically assigned as the concentration of the intersection of two straight lines through the data, where the first line is the linear portion of the initial decline in surface tension with increasing surfactant concentration, and the second is the line of constant surface tension.
The critical micelle concentration was determined from plots of surface tension as a function of the logarithm of active surfactant concentration. Surface tension was measured via the Wilhelmy plate technique. In this method, the downward force of a rigorously clean plate probe that just contacts the liquid surface of the test sample is measured, and the surface tension is calculated from knowledge of the contact angle the liquid makes with the probe surface and the length of the probe plate.
A K100C Tensiometer (Kruss GmbH) was used to measure surface tension of solutions in a glass sample vessel. All measurements were made under ambient temperature conditions.
The tensiometer was equipped with a computer-controlled microdispensing and aspirating system to automate surfactant concentration adjustments of the test solution while maintaining constant solution volume between successive measurements. A roughened platinum plate probe was used. Cleanliness of probe, sample vessel, and microdispensing system was verified after cleaning between samples by measuring the surface tension of pure deionized water run through the system as a control.
100 mL of the 1 mg/L surfactant solution was added to the clean sample vessel and placed in the instrument. The plate probe was rinsed with deionized water and flame treated to combust off residual organic impurities, then mounted in position in the tensiometer. The experiment was initiated and run through the LabDesk version 3.2.2 (Kruss GmbH) software.
The surface tension measurements were run sequentially (and automatically) from most dilute to most concentrated by incrementally injecting known volume aliquots of the 10,000 mg/L surfactant solution into the sample, homogenizing the sample after injection by stirring for 30 seconds via a magnetic stir bar in the solution, and then aspirating out equal volume that was added to the sample vessel to keep the total sample volume constant for each measurement.
The sample vessel was then automatically moved into measurement position, and the surface tension measurement was made and recorded. This sequence was repeated until all concentrations had been measured.
The active surfactant concentration range spanned from 1 mg/L to 5000 mg/L over 50 concentration increments, equally spaced on a logarithmic scale over the full range of concentrations measured.
The sample at each concentration was measured 10 times, and the average of the 10 measures was plotted against the logarithm of the surfactant concentration.
After completing the full range of concentrations, the software provided best-fit lines to estimate CMC, and these regression lines were manually adjusted as needed to give the broadest range of linear behavior for each line.

Compound	solubility in water [1]	Foam height at time t = 0 ([2]; 1 g/L (0.1 weight %))	Foam height at time t = 1 ([2]; 1 g/L (0.1 weight %))	Foam height at time t = 2 ([2]; 1 g/L (0.1 weight %))	Foam height at time t = 3 ([2]; 1 g/L (0.1 weight %))	Foam height at time t = 4 ([2]; 1 g/L (0.1 weight %))	Foam height at time t = 5 ([2]; 1 g/L (0.1 weight %))	Foam height at time t = 0 ([2]; 10 g/L (1.0 weight %))	Foam height at time t = 1 ([2]; 10 g/L (1.0 weight %))	Foam height at time t = 2 ([2]; 10 g/L (1.0 weight %))	Foam height at time t = 3 ([2]; 10 g/L (1.0 weight %))	Foam height at time t = 4 ([2]; 10 g/L (1.0 weight %))	Foam height at time t = 5 ([2]; 10 g/L (1.0 weight %))	Critical micelle concentration (CMC) [3]
CCCCCCCCCCCCNC(=O)C[N+](C)(C)CCCS(=O)(=O)[O-] [Comparative Example 4, 3-((2-Laurylamino-2-oxoethyl)dimethylammonio)-propanesulfonate, reference compound]	1.02 wt %													
CCCCCCCCCCCCOC(=O)CCC[N+](C)(C)CCCS(=O)(=O)[O-] [Example 5, 3-(3-(Lauryloxycarbonylpropyl)dimethylammonio)-propanesulfonate]	greater than or equal to 33 wt %	157 mm	154 mm	151 mm	149 mm	147 mm	146 mm	170 mm	166 mm	161 mm	158 mm	154 mm	152 mm	53.9 mg/L
CCCCCCCCCCCCOC(=O)C[N+](C)(C)CCCS(=O)(=O)[O-] [Comparative Example 2, 3-((Lauryloxycarbonylmethyl)dimethylammonio)-propanesulfonate, reference compound]	0.92 wt %													
CCCCCCCCCCCCNC(=O)CCC[N+](C)(C)CCCS(=O)(=O)[O-] [Example 14, 3-((4-Laurylamino-4-oxobutyl)dimethylammonio)-propanesulfonate]	greater than or equal to 33 wt %	143 mm	133 mm	123 mm	108 mm	95 mm	75 mm	157 mm	145 mm	137 mm	129 mm	122 mm	116 mm	133.9 mg/L
(4-Laurylamino-4-oxobutyl)dimethylammonioacetate [Example 11]		174 mm	172 mm	171 mm	171 mm	170 mm	170 mm	182 mm	180 mm	179 mm	178 mm	178 mm	177 mm	76.5 mg/L
